{"source": "paper PMC2989642", "about": "(The European journal of neuroscience, 2010)", "key": {"[1]": {"biological_target": "α3β4 receptors (in the α5β2 KO) (Mus musculus, UniProt Q8R493+Q8R4G9)", "sequence (Q8R4G9 26-499)": "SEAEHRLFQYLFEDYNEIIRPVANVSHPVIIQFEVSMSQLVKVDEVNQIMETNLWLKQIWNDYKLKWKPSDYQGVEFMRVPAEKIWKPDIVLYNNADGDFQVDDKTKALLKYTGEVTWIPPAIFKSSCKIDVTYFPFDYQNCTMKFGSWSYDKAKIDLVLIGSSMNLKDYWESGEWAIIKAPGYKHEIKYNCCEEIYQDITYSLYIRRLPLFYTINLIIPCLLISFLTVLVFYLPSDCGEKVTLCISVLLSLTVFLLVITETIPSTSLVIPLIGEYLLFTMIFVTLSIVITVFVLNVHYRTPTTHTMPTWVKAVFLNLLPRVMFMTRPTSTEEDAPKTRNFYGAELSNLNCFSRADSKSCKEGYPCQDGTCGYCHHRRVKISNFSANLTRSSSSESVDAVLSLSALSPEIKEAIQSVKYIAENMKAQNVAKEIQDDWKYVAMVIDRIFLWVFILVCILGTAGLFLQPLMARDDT", "sequence (Q8R493 21-495)": "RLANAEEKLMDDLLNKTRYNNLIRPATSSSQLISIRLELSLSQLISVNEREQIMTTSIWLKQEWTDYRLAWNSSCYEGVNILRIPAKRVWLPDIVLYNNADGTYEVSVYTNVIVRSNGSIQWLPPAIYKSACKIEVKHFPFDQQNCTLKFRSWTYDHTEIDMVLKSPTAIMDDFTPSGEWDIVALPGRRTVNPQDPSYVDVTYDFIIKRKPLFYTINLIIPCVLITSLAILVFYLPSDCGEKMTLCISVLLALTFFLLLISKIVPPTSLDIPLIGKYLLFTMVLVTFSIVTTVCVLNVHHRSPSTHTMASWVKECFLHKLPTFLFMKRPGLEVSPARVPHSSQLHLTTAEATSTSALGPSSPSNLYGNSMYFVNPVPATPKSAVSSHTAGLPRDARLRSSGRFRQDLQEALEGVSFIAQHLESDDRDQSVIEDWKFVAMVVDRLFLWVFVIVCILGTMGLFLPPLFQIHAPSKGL", "assay": "cell-based"}, "[2]": {"biological_target": "α3β2 receptors (in the α5β4 KO) (Mus musculus, UniProt Q8R4G9+Q9ERK7)", "sequence (Q8R4G9 26-499)": "as the sequence (Q8R4G9 26-499) above", "sequence (Q9ERK7 26-501)": "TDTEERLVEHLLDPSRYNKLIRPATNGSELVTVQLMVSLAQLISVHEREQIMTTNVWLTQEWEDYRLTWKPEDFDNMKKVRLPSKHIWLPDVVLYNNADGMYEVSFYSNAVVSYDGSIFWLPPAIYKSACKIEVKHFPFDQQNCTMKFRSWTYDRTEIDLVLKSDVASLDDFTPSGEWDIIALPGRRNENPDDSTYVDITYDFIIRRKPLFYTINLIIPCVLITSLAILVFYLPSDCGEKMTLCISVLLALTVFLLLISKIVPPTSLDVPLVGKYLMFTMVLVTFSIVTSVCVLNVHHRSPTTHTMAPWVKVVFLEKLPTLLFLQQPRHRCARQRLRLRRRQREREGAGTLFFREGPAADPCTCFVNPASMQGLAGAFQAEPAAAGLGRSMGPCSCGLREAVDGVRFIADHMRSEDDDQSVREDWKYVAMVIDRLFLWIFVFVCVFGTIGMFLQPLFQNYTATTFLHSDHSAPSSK", "assay": "cell-based", "format": "cell-based"}}}
{"substance": "α-conotoxin AuIB", "values": [{"measurement": "recovery of the inhibition", "setting": "[1]", "value": "Fast and full recovery"}, {"measurement": "effect on currents induced by 300 μM ACh", "setting": "[2]", "value": "did not affect"}]}
